According to ChEMBL document CHEMBL4118210, “Synthesis of novel hetero ring fused pyridine derivatives; Their anticancer activity, CoMFA and CoMSIA studies” (Bioorg Med Chem Lett, 2018):
pIC50: −log10 of the molar value.

Legend:
[1] = tested on: MCF7; assay: Antiproliferative activity against human MCF7 cells by MTT assay; type: functional, cell-based
[2] = tested on: COLO 205; assay: Antiproliferative activity against human COLO205 cells by MTT assay; type: functional, cell-based
[3] = tested on: HEK293; assay: Antiproliferative activity against human HEK293 cells by MTT assay; type: cell-based
[4] = tested on: HepG2; assay: Antiproliferative activity against human HepG2 cells by MTT assay; type: functional, cell-based
[5] = tested on: HeLa; assay: Antiproliferative activity against human HeLa cells by MTT assay; type: functional, cell-based

| Compound | pIC50 ([1]; read-out: IC50) | IC50 ([1]; read-out: pIC50 (converted)) | pIC50 ([2]; read-out: IC50) | IC50 ([2]; read-out: pIC50 (converted)) | IC50 [3] | IC50 [4] | IC50 ([5]; read-out: IC50) | IC50 ([1]; read-out: IC50) | IC50 ([2]; read-out: IC50) | pIC50 [3] | pIC50 [4] | pIC50 ([5]; read-out: IC50) | IC50 ([5]; read-out: pIC50 (converted)) |
| --- | --- | --- | --- | --- | --- | --- | --- | --- | --- | --- | --- | --- | --- |
| O=c1c2oc3nc(-c4ccccc4)cc(C(F)(F)F)c3c2ncn1/N=C/c1ccc(Cl)cc1 | 4.25 | 57.5 µM | 4.36 | 43.7 µM | > 220 µg/mL | > 220 µg/mL | > 220 µg/mL |  |  |  |  |  |  |
| O=c1c2oc3nc(-c4ccccc4)cc(C(F)(F)F)c3c2ncn1/N=C/c1ccccc1 |  |  |  |  | > 220 µg/mL | > 220 µg/mL | > 220 µg/mL | > 220 µg/mL | > 220 µg/mL |  |  |  |  |
| Nc1c(C(=O)N/N=C/c2ccc(Br)cc2)oc2nc(-c3cccs3)cc(C(F)(F)F)c12 | 5.28 | 5.25 µM | 5.23 | 5.89 µM |  |  |  |  |  | 4.07 | 5.21 | 5.19 | 6.46 µM |
| O=c1[nH]cc(F)c(=O)[nH]1 [FLUOROURACIL] |  |  |  |  |  |  |  |  |  | 4.71 | 5.77 |  |  |
| CCNC(=O)c1oc2nc(-c3cccs3)cc(C(F)(F)F)c2c1N | 4.66 | 21.9 µM | 4.73 | 18.6 µM |  |  |  |  |  | 4.21 | 4.92 | 4.85 | 14.1 µM |
| CCn1cnc2c(oc3nc(-c4ccccc4)cc(C(F)(F)F)c32)c1=O | 4.08 | 83.2 µM |  |  |  | > 220 µg/mL | > 220 µg/mL |  | > 220 µg/mL | 3.92 |  |  |  |
| Nc1c(C(=O)N/N=C/c2ccc(Cl)cc2)oc2nc(-c3cccs3)cc(C(F)(F)F)c12 | 5.13 | 7.41 µM | 5.11 | 7.94 µM |  |  |  |  |  | 4.08 | 5.09 | 5.10 | 7.94 µM |
| Cc1nc2c(oc3nc(-c4ccccc4)cc(C(F)(F)F)c32)c(=O)n1C1CCCC1 | 4.64 | 22.9 µM | 4.73 | 18.6 µM |  |  |  |  |  | 4.02 | 4.77 | 4.74 | 18.2 µM |
| CNC(=O)c1oc2nc(-c3cccs3)cc(C(F)(F)F)c2c1N | 4.74 | 18.2 µM | 4.75 | 17.8 µM |  |  |  |  |  | 4.12 | 4.91 | 4.81 | 15.5 µM |
| O=c1c2oc3nc(-c4cccs4)cc(C(F)(F)F)c3c2ncn1/N=C/c1ccccc1 |  |  |  |  |  | > 220 µg/mL |  | > 220 µg/mL | > 220 µg/mL | 4.05 |  | 4.37 | 42.7 µM |
| Cc1ccc(/C=N/n2cnc3c(oc4nc(-c5cccs5)cc(C(F)(F)F)c43)c2=O)cc1 | 4.53 | 29.5 µM |  |  | > 220 µg/mL | > 220 µg/mL |  |  | > 220 µg/mL |  |  | 4.37 | 42.7 µM |
| CCNC(=O)c1oc2nc(-c3ccccc3)cc(C(F)(F)F)c2c1N | 4.27 | 53.7 µM | 4.53 | 28.8 µM |  |  |  |  |  | 4.15 | 4.37 | 4.44 | 36.3 µM |
| O=c1c2oc3nc(-c4ccccc4)cc(C(F)(F)F)c3c2ncn1C1CCCC1 |  |  |  |  | > 220 µg/mL | > 220 µg/mL | > 220 µg/mL | > 220 µg/mL | > 220 µg/mL |  |  |  |  |
| CCCn1cnc2c(oc3nc(-c4ccccc4)cc(C(F)(F)F)c32)c1=O | 4.07 | 85.1 µM |  |  |  | > 220 µg/mL | > 220 µg/mL |  | > 220 µg/mL | 4.05 |  |  |  |
| Cc1ccc(/C=N/n2cnc3c(oc4nc(-c5ccccc5)cc(C(F)(F)F)c43)c2=O)cc1 |  |  |  |  | > 220 µg/mL | > 220 µg/mL | > 220 µg/mL | > 220 µg/mL | > 220 µg/mL |  |  |  |  |
| Cc1ccc(/C=N/NC(=O)c2oc3nc(-c4cccs4)cc(C(F)(F)F)c3c2N)cc1 | 4.73 | 11.2 µM | 4.67 | 10.2 µM |  |  |  |  |  | 4.11 | 4.70 | 4.61 | 9.12 µM |
| O=c1c2oc3nc(-c4ccccc4)cc(C(F)(F)F)c3c2ncn1/N=C/c1ccc(Br)cc1 |  |  |  |  | > 220 µg/mL | > 220 µg/mL | > 220 µg/mL | > 220 µg/mL | > 220 µg/mL |  |  |  |  |
| Cc1nc2c(oc3nc(-c4ccccc4)cc(C(F)(F)F)c32)c(=O)n1C |  |  |  |  | > 220 µg/mL | > 220 µg/mL | > 220 µg/mL | > 220 µg/mL | > 220 µg/mL |  |  |  |  |
| O=c1c2oc3nc(-c4cccs4)cc(C(F)(F)F)c3c2ncn1/N=C/c1ccc(Br)cc1 |  |  |  |  | > 220 µg/mL | > 220 µg/mL | > 220 µg/mL | > 220 µg/mL | > 220 µg/mL |  |  |  |  |
| CCCn1c(C)nc2c(oc3nc(-c4ccccc4)cc(C(F)(F)F)c32)c1=O | 3.93 | 117 µM |  |  |  | > 220 µg/mL | > 220 µg/mL |  | > 220 µg/mL | 4.28 |  |  |  |
| CNC(=O)c1oc2nc(-c3ccccc3)cc(C(F)(F)F)c2c1N | 4.43 | 37.2 µM | 4.43 | 37.2 µM |  |  |  |  |  | 4.21 | 4.39 | 4.40 | 45.7 µM |

| Compound | pIC50 ([1]; read-out: IC50) | IC50 ([1]; read-out: pIC50 (converted)) | pIC50 ([2]; read-out: IC50) | IC50 ([2]; read-out: pIC50 (converted)) | IC50 [3] | IC50 [4] | IC50 ([5]; read-out: IC50) | IC50 ([1]; read-out: IC50) | IC50 ([2]; read-out: IC50) | pIC50 [3] | pIC50 [4] | pIC50 ([5]; read-out: IC50) | IC50 ([5]; read-out: pIC50 (converted)) |
| --- | --- | --- | --- | --- | --- | --- | --- | --- | --- | --- | --- | --- | --- |
| CCCn1c(C)nc2c(oc3nc(-c4cccs4)cc(C(F)(F)F)c32)c1=O | 4.50 | 31.6 µM | 4.72 | 19.1 µM |  |  |  |  |  | 4.17 | 4.64 | 4.55 | 28.8 µM |
| Nc1c(C(=O)NC2CCCC2)oc2nc(-c3cccs3)cc(C(F)(F)F)c12 | 4.64 | 22.9 µM | 4.74 | 18.6 µM |  |  |  |  |  | 4.29 | 4.68 | 4.66 | 21.9 µM |
| Nc1c(C(=O)NC2CCCC2)oc2nc(-c3ccccc3)cc(C(F)(F)F)c12 | 4.22 | 60.3 µM | 4.29 | 51.3 µM |  |  |  |  |  | 4.07 | 4.49 | 4.59 | 25.7 µM |
| Cc1ccc(/C=N/NC(=O)c2oc3nc(-c4ccccc4)cc(C(F)(F)F)c3c2N)cc1 | 4.99 | 10.2 µM | 5.04 | 9.12 µM |  |  |  |  |  | 4.16 | 5.05 | 4.93 | 11.7 µM |
| CCCNC(=O)c1oc2nc(-c3ccccc3)cc(C(F)(F)F)c2c1N | 4.45 | 35.5 µM | 4.41 | 38.9 µM |  |  |  |  |  | 4.09 | 4.43 | 4.44 | 36.3 µM |
| Nc1c(C(=O)N/N=C/c2ccccc2)oc2nc(-c3cccs3)cc(C(F)(F)F)c12 | 4.92 | 12 µM | 5.01 |  |  |  |  |  |  | 4.14 | 5.00 | 4.93 | 11.7 µM |
| Cc1nc2c(oc3nc(-c4cccs4)cc(C(F)(F)F)c32)c(=O)n1C |  |  |  |  | > 220 µg/mL | > 220 µg/mL | > 220 µg/mL | > 220 µg/mL | > 220 µg/mL |  |  |  |  |
| Cc1nc2c(oc3nc(-c4cccs4)cc(C(F)(F)F)c32)c(=O)n1C1CCCC1 |  | 11.7 µM |  |  |  | > 220 µg/mL | > 220 µg/mL | > 220 µg/mL | > 220 µg/mL | 3.91 |  |  |  |
| O=c1c2oc3nc(-c4cccs4)cc(C(F)(F)F)c3c2ncn1C1CCCC1 | 4.20 | 63.1 µM | 4.37 | 42.7 µM | > 220 µg/mL |  |  |  |  |  | 4.30 | 4.30 |  |
| Cn1cnc2c(oc3nc(-c4cccs4)cc(C(F)(F)F)c32)c1=O |  |  |  |  | > 220 µg/mL | > 220 µg/mL | > 220 µg/mL | > 220 µg/mL | > 220 µg/mL |  |  |  | 50.1 µM |
| CCCNC(=O)c1oc2nc(-c3cccs3)cc(C(F)(F)F)c2c1N | 4.69 | 20.4 µM | 4.82 | 15.5 µM |  |  |  |  |  | 4.19 | 4.76 | 4.72 | 19.1 µM |
| Cn1cnc2c(oc3nc(-c4ccccc4)cc(C(F)(F)F)c32)c1=O |  |  |  | 9.77 µM | > 220 µg/mL |  | > 220 µg/mL | > 220 µg/mL | > 220 µg/mL |  | 3.66 |  |  |
| Nc1c(C(=O)N/N=C/c2ccc(Br)cc2)oc2nc(-c3ccccc3)cc(C(F)(F)F)c12 | 4.73 | 18.6 µM | 4.67 | 21.4 µM |  |  |  |  |  | 4.19 | 4.70 | 4.62 | 24 µM |
| CCCn1cnc2c(oc3nc(-c4cccs4)cc(C(F)(F)F)c32)c1=O |  |  |  |  | > 220 µg/mL | > 220 µg/mL | > 220 µg/mL | > 220 µg/mL | > 220 µg/mL |  |  |  |  |
| O=c1c2oc3nc(-c4cccs4)cc(C(F)(F)F)c3c2ncn1/N=C/c1ccc(Cl)cc1 | 4.38 | 42.7 µM | 4.29 | 51.3 µM |  | > 220 µg/mL | > 220 µg/mL |  |  | 3.99 |  |  |  |
| Nc1c(C(=O)N/N=C/c2ccccc2)oc2nc(-c3ccccc3)cc(C(F)(F)F)c12 | 4.85 | 14.1 µM | 4.91 | 12.3 µM |  |  |  |  |  | 4.15 | 4.88 | 4.87 | 13.5 µM |
| CCn1c(C)nc2c(oc3nc(-c4cccs4)cc(C(F)(F)F)c32)c1=O |  |  |  |  | > 220 µg/mL | > 220 µg/mL | > 220 µg/mL | > 220 µg/mL | > 220 µg/mL |  |  |  |  |
| CCn1cnc2c(oc3nc(-c4cccs4)cc(C(F)(F)F)c32)c1=O |  |  |  |  | > 220 µg/mL | > 220 µg/mL | > 220 µg/mL | > 220 µg/mL | > 220 µg/mL |  |  |  |  |
| CCn1c(C)nc2c(oc3nc(-c4ccccc4)cc(C(F)(F)F)c32)c1=O |  |  |  |  | > 220 µg/mL | > 220 µg/mL | > 220 µg/mL | > 220 µg/mL | > 220 µg/mL |  |  |  |  |
| Nc1c(C(=O)N/N=C/c2ccc(Cl)cc2)oc2nc(-c3ccccc3)cc(C(F)(F)F)c12 | 4.92 | 12 µM | 4.95 | 11.2 µM |  |  |  |  |  | 4.09 | 4.92 | 5.39 | 4.07 µM |
